Legend:
[1] = biological target: T1, Phospholipase A2, membrane associated (Homo sapiens) (UniProt P14555); assay: In vitro percent inhibition against Phospholipase A2 (HSF-PLA2) by monitoring hydrolysis of [3H]- arachidonic acid labeled Escherichia coli at 50 uM
T1 sequence (whole entry): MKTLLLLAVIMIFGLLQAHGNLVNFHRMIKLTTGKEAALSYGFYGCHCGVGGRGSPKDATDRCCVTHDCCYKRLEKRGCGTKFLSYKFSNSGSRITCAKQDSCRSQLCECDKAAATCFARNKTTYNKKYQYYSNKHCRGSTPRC

[2] = In vitro inhibition of PGE-2 production in murine resident peritoneal macrophage; type: functional; conditions: Mus musculus
Homo sapiens [3] = species: Homo sapiens; assay: In vitro inhibition of platelet activating factor (PAF) production in human PMN at 50 uM; not active at 50 uM; type: functional
Homo sapiens [4] = species: Homo sapiens; assay: In vitro inhibition of LTB4 production in human PMN at 50 uM; not active at 50 uM; type: functional
[5] = biological target: T2, Phospholipase A2, membrane associated (Homo sapiens, UniProt P14555); assay: In vitro inhibition tested against Phospholipase A2 (HSF-PLA2) by monitoring hydrolysis of [3H]- arachidonic acid labeled Escherichia coli at 50 uM
T2 sequence (P14555 whole entry): T1 sequence (whole entry)

Homo sapiens [6] = species: Homo sapiens; assay: In vitro inhibition of LTB4 production in human PMN; type: functional
[7] = biological target: T2, Phospholipase A2, membrane associated; assay: In vitro inhibitory activity against human synovial fluid phospholipase A2 (HSF-PLA2) by monitoring hydrolysis of [3H]arachidonic acid labeled Escherichia coli
Homo sapiens [8] = species: Homo sapiens; assay: In vitro inhibition of platelet activating factor (PAF) production in human PMN; type: functional
Homo sapiens [9] = species: Homo sapiens; assay: In vitro percent inhibition of platelet activating factor (PAF) production in human PMN at 10 uM; type: functional

Row | inhibition [1] [%] | IC50 [2] [nM] | IC50 (Homo sapiens [3]) | IC50 (Homo sapiens [4]) | IC50 [5] [nM] | IC50 (Homo sapiens [6]) [nM] | IC50 [7] [nM] | IC50 (Homo sapiens [8]) [nM] | Compound | inhibition at 10 µM (Homo sapiens [9]) [%]
1 | 21 | 300 | Not Active | Not Active | > 50000 |  |  |  | CC1(C)CCC[C@@]2(C)C1CC[C@]1(C)C2C[C@H](O)[C@@]2(C)C1CC=C(CO)[C@@H]2CO (some centres not stated) | 
2 |  | 40 |  |  |  | 1000 | 15 | 1000 | CC(=O)O[C@H]1C[C@@H]2[C@@]3(C)CCCC(C)(C)[C@@H]3CC[C@@]2(C)[C@@H]2CC=C(C=O)[C@H](C=O)[C@@]12C [SCALARADIAL] | 
3 |  | 200 |  |  |  |  | 4800 |  | CC(=O)O[C@H]1CC2[C@@]3(C)CCCC(C)(C)C3CC[C@@]2(C)C2CC=C(C(=O)O)[C@H](C(=O)O)[C@]21C (some centres not stated) | 60

Reference: ChEMBL document CHEMBL1127940, “Analogs of the marine natural product scalaradial lacking the ,-unsaturated aldehyde: effects on human synovial fluid phospholipase A2 and macrophage lipid mediator production” (Bioorg Med Chem Lett, 1994)
